Source: paper PMC3105188 (The Journal of steroid biochemistry and molecular biology, 2011)
Substitutions are numbered along the chain they refer to. Entries after “also recorded” stand apart in the source; their conditions may differ. Read-outs that look alike come from different tables or passages of the source.

Legend:
wild-type hVDR [1] = target: T1, wild-type hVDR (Homo sapiens, UniProt P11473); format: cell-based; conditions: HEK293T
T1 sequence (P11473 127-423 limits assumed): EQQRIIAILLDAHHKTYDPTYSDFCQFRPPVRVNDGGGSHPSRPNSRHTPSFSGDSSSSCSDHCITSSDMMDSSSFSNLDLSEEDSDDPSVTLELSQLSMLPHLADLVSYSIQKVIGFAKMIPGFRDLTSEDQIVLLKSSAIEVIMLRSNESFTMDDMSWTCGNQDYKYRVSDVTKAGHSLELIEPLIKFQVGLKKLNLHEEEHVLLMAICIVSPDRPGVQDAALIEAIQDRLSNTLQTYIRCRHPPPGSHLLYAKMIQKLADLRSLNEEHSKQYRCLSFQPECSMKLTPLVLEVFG

hVDR mutant H305Y [2] = target: T2, hVDR mutant H305Y (Homo sapiens, UniProt P11473, H305Y); format: cell-based; conditions: HEK293T
T2 sequence (P11473 127-423 H305Y limits assumed): T1 sequence (P11473 127-423 limits assumed) with H179Y

hVDR mutant H305F/H397Y [3] = target: T3, hVDR mutant H305F/H397Y (Homo sapiens, UniProt P11473, H305F/H397Y); format: cell-based
T3 sequence (P11473 127-423 H305F/H397Y limits assumed): T1 sequence (P11473 127-423 limits assumed) with H179F, H271Y

wild-type hVDR [4] = target: T4, wild-type hVDR (Homo sapiens, UniProt P11473); format: cell-based
T4 sequence (P11473 1-427): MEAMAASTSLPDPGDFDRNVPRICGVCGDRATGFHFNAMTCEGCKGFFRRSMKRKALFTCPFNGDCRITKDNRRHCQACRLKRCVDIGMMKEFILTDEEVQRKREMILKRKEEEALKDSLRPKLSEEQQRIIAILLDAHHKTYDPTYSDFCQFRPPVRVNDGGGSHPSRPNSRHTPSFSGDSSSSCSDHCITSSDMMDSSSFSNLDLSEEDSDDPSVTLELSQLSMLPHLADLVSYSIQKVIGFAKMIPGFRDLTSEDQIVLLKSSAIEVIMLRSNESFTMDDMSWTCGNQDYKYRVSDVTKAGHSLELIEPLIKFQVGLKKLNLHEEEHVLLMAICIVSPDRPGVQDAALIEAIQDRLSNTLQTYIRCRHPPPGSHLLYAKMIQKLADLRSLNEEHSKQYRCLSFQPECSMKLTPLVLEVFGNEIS

hVDR mutant H305F [5] = target: hVDR mutant H305F (Homo sapiens, UniProt P11473, H305F); assay: Chemical complementation, yeast PJ69-4A liquid quantitation growth assay; format: cell-based
Target sequence in this assay (P11473 127-423 H305F limits assumed): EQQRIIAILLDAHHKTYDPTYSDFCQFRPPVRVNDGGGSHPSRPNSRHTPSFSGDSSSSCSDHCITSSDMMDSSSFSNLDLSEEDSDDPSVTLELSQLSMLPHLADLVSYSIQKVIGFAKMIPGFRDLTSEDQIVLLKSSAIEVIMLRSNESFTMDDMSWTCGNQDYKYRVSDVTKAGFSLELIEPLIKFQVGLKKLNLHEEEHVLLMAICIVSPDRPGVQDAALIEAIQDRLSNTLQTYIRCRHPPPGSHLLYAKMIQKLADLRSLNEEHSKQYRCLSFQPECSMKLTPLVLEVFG
Target sequence in this assay (Q9Y6Q9 whole entry partner): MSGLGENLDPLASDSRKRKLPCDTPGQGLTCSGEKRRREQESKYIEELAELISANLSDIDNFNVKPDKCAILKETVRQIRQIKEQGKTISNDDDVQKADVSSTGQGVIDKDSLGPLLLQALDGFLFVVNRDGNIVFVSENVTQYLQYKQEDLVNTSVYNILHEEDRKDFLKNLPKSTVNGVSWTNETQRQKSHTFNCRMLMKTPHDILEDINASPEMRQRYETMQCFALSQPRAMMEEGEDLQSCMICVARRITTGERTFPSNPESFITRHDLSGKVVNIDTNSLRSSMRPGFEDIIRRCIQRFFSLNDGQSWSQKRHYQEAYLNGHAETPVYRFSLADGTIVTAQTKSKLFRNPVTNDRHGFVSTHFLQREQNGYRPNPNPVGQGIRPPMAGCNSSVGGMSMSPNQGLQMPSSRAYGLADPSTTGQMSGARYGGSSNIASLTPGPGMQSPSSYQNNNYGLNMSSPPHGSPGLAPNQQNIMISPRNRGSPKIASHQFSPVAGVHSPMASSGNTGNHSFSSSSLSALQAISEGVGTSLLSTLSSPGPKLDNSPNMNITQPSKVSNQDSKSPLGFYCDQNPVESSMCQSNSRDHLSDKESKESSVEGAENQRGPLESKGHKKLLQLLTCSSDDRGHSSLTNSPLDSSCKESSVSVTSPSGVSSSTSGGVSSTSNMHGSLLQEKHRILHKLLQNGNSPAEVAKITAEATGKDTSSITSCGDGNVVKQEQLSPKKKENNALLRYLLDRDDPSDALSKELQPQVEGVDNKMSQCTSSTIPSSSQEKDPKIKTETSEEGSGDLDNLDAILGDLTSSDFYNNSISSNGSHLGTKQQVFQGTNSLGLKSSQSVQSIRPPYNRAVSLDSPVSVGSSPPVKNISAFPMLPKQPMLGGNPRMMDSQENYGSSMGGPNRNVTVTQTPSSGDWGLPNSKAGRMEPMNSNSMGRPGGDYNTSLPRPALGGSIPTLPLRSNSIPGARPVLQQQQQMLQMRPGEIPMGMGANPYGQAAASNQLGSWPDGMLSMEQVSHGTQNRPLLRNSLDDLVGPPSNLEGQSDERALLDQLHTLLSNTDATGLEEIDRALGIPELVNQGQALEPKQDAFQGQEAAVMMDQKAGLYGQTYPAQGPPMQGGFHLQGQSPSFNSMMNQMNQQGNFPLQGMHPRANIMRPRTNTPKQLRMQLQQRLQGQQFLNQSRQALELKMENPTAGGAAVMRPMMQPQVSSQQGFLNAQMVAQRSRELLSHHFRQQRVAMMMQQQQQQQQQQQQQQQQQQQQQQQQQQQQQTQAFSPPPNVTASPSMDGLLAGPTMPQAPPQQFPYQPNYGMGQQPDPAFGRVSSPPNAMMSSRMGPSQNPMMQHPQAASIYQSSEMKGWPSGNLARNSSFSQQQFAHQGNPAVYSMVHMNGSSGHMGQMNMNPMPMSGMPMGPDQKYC

hVDR mutant H305Y [6] = target: hVDR mutant H305Y (Homo sapiens, UniProt P11473, H305Y); assay: as above; format: cell-based
Target sequence in this assay (P11473 127-423 H305Y limits assumed): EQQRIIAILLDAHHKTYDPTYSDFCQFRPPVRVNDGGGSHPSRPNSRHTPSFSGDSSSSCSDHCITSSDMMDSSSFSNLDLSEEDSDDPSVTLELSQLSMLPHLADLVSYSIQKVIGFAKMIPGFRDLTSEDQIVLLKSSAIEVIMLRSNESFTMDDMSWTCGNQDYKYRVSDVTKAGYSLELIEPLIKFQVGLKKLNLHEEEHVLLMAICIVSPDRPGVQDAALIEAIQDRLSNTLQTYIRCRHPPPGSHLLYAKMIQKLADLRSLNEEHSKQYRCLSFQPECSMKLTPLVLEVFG
Target sequence in this assay (Q9Y6Q9 whole entry partner): as the sequence (Q9Y6Q9 whole entry partner) above

hVDR mutant H305F/H397Y [7] = target: hVDR mutant H305F/H397Y (Homo sapiens, UniProt P11473, H305F/H397Y); conditions: adenine selective media (-ALW)
Target sequence in this assay (P11473 127-423 H305F/H397Y limits assumed): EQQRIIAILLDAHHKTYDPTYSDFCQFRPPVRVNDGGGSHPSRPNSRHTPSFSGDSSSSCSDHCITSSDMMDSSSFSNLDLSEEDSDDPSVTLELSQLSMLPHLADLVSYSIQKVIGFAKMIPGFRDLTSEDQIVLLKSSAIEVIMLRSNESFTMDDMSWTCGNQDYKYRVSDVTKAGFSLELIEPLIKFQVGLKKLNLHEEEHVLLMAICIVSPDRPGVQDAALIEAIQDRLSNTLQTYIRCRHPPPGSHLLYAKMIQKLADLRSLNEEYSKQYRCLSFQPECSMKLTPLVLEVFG
Target sequence in this assay (Q9Y6Q9 whole entry partner): as the sequence (Q9Y6Q9 whole entry partner) above

hVDR H305F = conditions: antagonist on wild-type hVDR; cited from earlier work
hVDR mutant H305F [8] = target: T5, hVDR mutant H305F (Homo sapiens, UniProt P11473, H305F); format: cell-based; conditions: HEK293T
T5 sequence (P11473 127-423 H305F limits assumed): T1 sequence (P11473 127-423 limits assumed) with H179F

[9] = histidine selective media (data not shown)

Compound | ligand concentration at which activation is displayed (wild-type hVDR [1]) [µM] | ligand concentration at which activation is displayed (hVDR mutant H305Y [2]) [µM] | ligand concentration at which activation is displayed (hVDR mutant H305F/H397Y [3]; HEK293T) [µM] | ligand-activated growth (in words) (wild-type hVDR [4]; adenine selective media (-ALW)) | ligand concentration at which growth is observed (wild-type hVDR [4]; histidine selective media (SC-HLW + 0.1 mM 3AT), OD 630) [µM] | ligand concentration at which growth is observed (hVDR mutant H305F [5]; adenine selective media (-ALW)) [µM] | ligand concentration at which growth is observed (hVDR mutant H305F [5]; [9]) [µM] | ligand concentration at which growth is observed (hVDR mutant H305Y [6]; adenine selective media (-ALW)) [µM] | ligand concentration at which growth is observed (hVDR mutant H305Y [6]; [9]) [µM] | ligand concentration at which growth/activation is observed (hVDR mutant H305F/H397Y [7]) [µM] | functional character with the H305F mutation (in words) (hVDR H305F) | activation of receptor (in words) (wild-type hVDR [1]) | ligand concentration at which activation is displayed (hVDR mutant H305F [8]) [µM] | lowest ligand concentration giving activation (hVDR mutant H305F/H397Y [3]; mammalian cell assays) [nM] | ligand-activated growth (in words) (wild-type hVDR [4]; Figure 2B, any ligand concentration)
C[C@H](CCC(=O)O)[C@H]1CC[C@H]2[C@@H]3CC[C@@H]4C[C@H](O)CC[C@]4(C)[C@H]3CC[C@]12C [Lithocholic Acid, lithocholic acid] | 100 | 1 | 1 | no growth | 10 | 1 | 0.1 | 1 | 0.1 | 1 |  |  |  |  | 
C=C1C[C@H](C[C@@H](C)[C@H]2CC[C@H]3/C(=C/C=C4/C[C@@H](O)C[C@H](O)C4=C)CCC[C@]23C)OC1=O [MK, (23S)-25-dehydro-1alpha(OH)-vitamin D3-26,23-lactone] |  |  |  |  |  |  |  |  |  |  | superagonist |  |  |  | 
C=C1CC[C@H](O)C/C1=C/C=C1\CCC[C@]2(C)[C@@H]([C@H](C)CCCC(C)C)CC[C@@H]12 [Cholecalciferol, cholecalciferol] |  | 1 |  |  |  |  |  |  |  |  |  | does not activate; also recorded: no activation | 1 | 100 | No ligand activated growth; also recorded: not observed
